Consider 27 compounds from patent US7521396B2, “Substituted (thioxo)carbonylaminophenyluracils” (Bayer CropScience AG, priority 2002, dated 2009).

Data set [1] deals with weeds. Nature of the data set: Post-emergence test (Example B), damage to weeds. The format is in vivo. To be noted: test plants of 5-15 cm sprayed, rated after three weeks. On the procedure: (§1) To produce a suitable preparation of active compound, 1 part by weight of active compound is mixed with the stated amount of solvent, the stated amount of emulsifier is added and the concentrate is diluted with water to the desired concentration.
Test plants of a height of 5-15 cm are sprayed with the preparation of active compound such that the particular amounts of active compound desired are applied per unit area. The concentration of the spray liquor is chosen such that the particular amounts of active compound desired are applied in 1000 l of water/ha.
After three weeks, the degree of damage to the plants is rated in % damage in comparison to the development of the untreated control.
The figures denote: • 0%=no effect (like untreated control) • 100%=total destruction

For data set [2], the system named is weeds. The data set can be described thus: Pre-emergence test (Example A), damage to weeds. The format is in vivo. The note with it: soil sprayed 24 hours after sowing, rated after three weeks. On the procedure: as §1
Seeds of the test plants are sown in normal soil. After 24 hours, the soil is sprayed with the preparation of active compound such that the particular amount of active compound desired is applied per unit area. The concentration of active compound in the spray liquor is chosen such that the particular amount of active compound desired is applied in 1000 liters of water per hectare.
After three weeks, the degree of damage to the plants is rated in % damage in comparison to the development of the untreated control. The figures denote: • 0%=no effect (like untreated control) • 100%=total destruction

Data set [3] is described as follows: logP by HPLC on reversed-phase column (C 18), EEC Directive 79/831 Annex V.A8. Type of data set: physicochemical.

Read-outs that look alike come from different tables or passages of the source. Marks after values point to notes of the source that are not given here.

In the case of `CN1CCN(C(=O)Nc2cc(-n3c(=O)cc(C(F)(F)F)n(C)c3=O)c(F)cc2Br)C1=O` [Example 5], the “activity against weeds (degree of damage)” value (“activity against weeds” below) in the data set on weeds [1] and in the data set with weeds [2] was “strong activity” in each case. Moreover, the logP entry in data set [3] is “logP = 2.55^a)”.

Turning to `CCN1CCN(C(=O)Nc2cc(-n3c(=O)cc(C(F)(F)F)n(C)c3=O)c(F)cc2Br)C1=O` [Example 6], the “activity against weeds” value in the data set on weeds [1] and with weeds [2] was “strong activity” each time. Further, in data set [3], the logP result is reported as “logP = 2.85^a)”.

As for `CN1CCCN(C(=O)Nc2cc(-n3c(=O)cc(C(F)(F)F)n(C)c3=O)c(F)cc2Br)C1=O` [Example 7], the “activity against weeds” value in the data set on weeds [1] and with weeds [2] was “strong activity” throughout. The logP entry in data set [3] was “logP = 2.79^a)”.

As to `CON(C)C(=O)Nc1cc(-n2c(=O)cc(C(F)(F)F)n(C)c2=O)c(F)cc1Br` [Example 8], the “activity against weeds” value with weeds [1] and with weeds [2] was “strong activity” throughout. Moreover, the logP result in data set [3] was “logP = 2.67^a)”.

`CONC(=O)Nc1cc(-n2c(=O)cc(C(F)(F)F)n(C)c2=O)c(F)cc1Br` [Example 9]: the “activity against weeds” value in the data set with weeds [1] and with weeds [2] was “strong activity” in each case. Besides, in data set [3], the logP entry is listed as “logP = 2.19^a)”.

For the compound `CCOC(=O)C(C)OC(=O)Nc1cc(-n2c(=O)cc(C(F)(F)F)n(C)c2=O)c(F)cc1Br` (stereo not drawn) [Example 10], the “activity against weeds” value with weeds [1] and with weeds [2] was “strong activity” throughout. Also, the logP result in data set [3] is “logP = 3.06^a)”.

On to `Cn1c(C(F)(F)F)cc(=O)n(-c2cc(NC(=O)NCCC#N)c(Br)cc2F)c1=O` [Example 20], for which the “activity against weeds” value in the data set on weeds [2] was “strong activity”. Besides, the logP entry in data set [3] (a) acidic range: 0.1% aqueous phosphoric acid, acetonitrile gradient, 43° C.) is “logP = 2.08^a)”.

For the compound `CON(C)C(=O)Nc1cc(-n2c(=O)cc(C(F)(F)F)n(C)c2=O)c(F)cc1Cl` [Example 21], the “activity against weeds” value with weeds [1] and in the data set on weeds [2] was “strong activity” each time. In data set [3], the logP entry is listed as “logP = 2.60^a)”.

Turning to `C=CCONC(=O)Nc1cc(-n2c(=O)cc(C(F)(F)F)n(C)c2=O)c(F)cc1Cl` [Example 22], the “activity against weeds” value with weeds [2] is on record as “strong activity”. Moreover, in data set [3], the logP result is “logP = 2.60^a)”.

Regarding `Cn1c(C(F)(F)F)cc(=O)n(-c2cc(NC(=O)N3CCCO3)c(Cl)cc2F)c1=O` [Example 24], the “activity against weeds” value in the data set on weeds [1] and with weeds [2] was “strong activity” throughout. Besides, the logP entry in data set [3] is given as “logP = 2.58^a)”.

In the case of `Cn1c(C(F)(F)F)cc(=O)n(-c2cc(NC(=O)N3CCOC3=O)c(Cl)cc2F)c1=O` [Example 25], the “activity against weeds” value with weeds [1] and in the data set on weeds [2] was “strong activity” throughout. Besides, the logP entry in data set [3] is “logP = 2.55^a)”.

As for `C=CCONC(=O)Nc1cc(-n2c(=O)cc(C(F)(F)F)n(C)c2=O)c(F)cc1Br` [Example 26], the “activity against weeds” value in the data set on weeds [1] and with weeds [2] was “strong activity” in each case. For the same compound, the logP entry in data set [3] was “logP = 2.67^a)”.

Regarding `CCONC(=O)Nc1cc(-n2c(=O)cc(C(F)(F)F)n(C)c2=O)c(F)cc1Cl` [Example 27], the “activity against weeds” value in the data set with weeds [1] and in the data set on weeds [2] was “strong activity” each time. Moreover, the logP result in data set [3] is reported as “logP = 2.45^a)”.

Take `Cn1c(C(F)(F)F)cc(=O)n(-c2cc(NC(=O)N3CCCO3)c(Br)cc2F)c1=O` [Example 28]: the “activity against weeds” value in the data set with weeds [1] and in the data set on weeds [2] was “strong activity” in each case. Also, the logP entry in data set [3] was “logP = 2.63^a)”.

Regarding `Cn1c(C(F)(F)F)cc(=O)n(-c2cc(NC(=O)N3CCOC3=O)c(Br)cc2F)c1=O` [Example 30], the “activity against weeds” value in the data set with weeds [1] and in the data set with weeds [2] was “strong activity” each time. Moreover, in data set [3], the logP result is “logP = 2.59^a)”.

With `Cn1ccsc1=NC(=O)Nc1cc(-n2c(=O)cc(C(F)(F)F)n(C)c2=O)c(F)cc1Br` [Example 31], the “activity against weeds” value in the data set on weeds [1] and in the data set on weeds [2] was “strong activity” in each case. Moreover, the logP entry in data set [3] is “logP = 2.59^a)”.

Consider `Cn1ccsc1=NC(=O)Nc1cc(-n2c(=O)cc(C(F)(F)F)n(C)c2=O)c(F)cc1Cl` [Example 32], for which the “activity against weeds” value with weeds [1] and with weeds [2] was “strong activity” throughout. The logP result in data set [3] was “logP = 2.51^a)”.

On to `CCOC(=O)C1CCN(C(=O)Nc2cc(-n3c(=O)cc(C(F)(F)F)n(C)c3=O)c(F)cc2Br)CC1` [Example 36], for which the “activity against weeds” value in the data set with weeds [1] is given as “strong activity”. In data set [3], the logP result is “logP = 2.88^a)”.

`CN(Cc1ccco1)C(=O)Nc1cc(-n2c(=O)cc(C(F)(F)F)n(C)c2=O)c(F)cc1Br` [Example 37]: the “activity against weeds” value in the data set on weeds [1] and with weeds [2] was “strong activity” in each case. Besides, the logP result in data set [3] is “logP = 2.95^a)”.

For the compound `CCCN(C(=O)Nc1cc(-n2c(=O)cc(C(F)(F)F)n(C)c2=O)c(F)cc1Br)C(C)C` [Example 38], the “activity against weeds” value with weeds [1] and in the data set on weeds [2] was “strong activity” each time. Moreover, in data set [3], the logP entry is “logP = 2.79^a)”.

On to `Cn1c(C(F)(F)F)cc(=O)n(-c2cc(NC(=O)NC3=NCCS3)c(Br)cc2F)c1=O` [Example 39], for which the “activity against weeds” value in the data set with weeds [1] and with weeds [2] was “strong activity” in each case. The logP result in data set [3] is “logP = 2.16^a)”.

For `Cn1c(C(F)(F)F)cc(=O)n(-c2cc(NC(=O)N3CCOCC3)c(Br)cc2F)c1=O` [Example 41], in the data set on weeds [1], the “activity against weeds” value is “strong activity”. Moreover, the logP result in data set [3] is “logP = 2.16^a)”.

Turning to `CCOC(=O)C1CCN(C(=O)Nc2cc(-n3c(=O)cc(C(F)(F)F)n(C)c3=O)c(F)cc2Cl)CC1` [Example 42], the “activity against weeds” value in the data set on weeds [1] is recorded as “strong activity”. Further, in data set [3], the logP result was “logP = 2.84^a)”.

In the case of `CN(Cc1ccco1)C(=O)Nc1cc(-n2c(=O)cc(C(F)(F)F)n(C)c2=O)c(F)cc1Cl` [Example 44], the “activity against weeds” value in the data set with weeds [1] and in the data set with weeds [2] was “strong activity” throughout. Further, in data set [3], the logP entry was “logP = 2.88^a)”.

Regarding `CCCN(C(=O)Nc1cc(-n2c(=O)cc(C(F)(F)F)n(C)c2=O)c(F)cc1Cl)C(C)C` [Example 45], the “activity against weeds” value in the data set on weeds [1] and with weeds [2] was “strong activity” in each case. For the same compound, the logP entry in data set [3] is recorded as “logP = 2.58^a)”.

For the compound `Cn1c(C(F)(F)F)cc(=O)n(-c2cc(NC(=O)NC3=NCCS3)c(Cl)cc2F)c1=O` [Example 48], the “activity against weeds” value with weeds [1] and in the data set with weeds [2] was “strong activity” in each case. In addition, the logP result in data set [3] was “logP = 2.11^a)”.

As to `Cn1c(C(F)(F)F)cc(=O)n(-c2cc(NC(=O)N3CCOCC3)c(Cl)cc2F)c1=O` [Example 49], the “activity against weeds” value with weeds [2] is recorded as “strong activity”. Further, the logP entry in data set [3] is “logP = 2.11^a)”.
